Source: patent US11642332B2, “(2R,4R)-5-(5′-chloro-2′-fluorobiphenyl-4-yl)-2-hydroxy-4-[(5-methyloxazole-2-carbonyl)amino]pentanoic acid” (THERAVANCE BIOPHARMA R&D IP, LLC, priority 2015, dated 2023)
Where two headings read alike, the source gives them in different places.

Assays:
[1] = Renal excretion of Compound 1 in rat; type: in vivo, male Sprague Dawley rats; details: IV 0.5 mg/kg
Experimental: An important factor for insuring appropriate long term drug dosing and correct steady-state drug concentrations in patients is drug clearance. In general, decreased drug clearance results in higher drug concentrations and greater drug effects. In order to understand renal clearance of Compound 1, the percent of administered dose recovered in urine following a single IV dose was assessed in three animal species. Three separate studies in male Sprague Dawley rats, male beagle dogs and male cynomolgus monkeys, respectively, were conducted and the procedure and experimental results are described below.
Male Sprague Dawley rats (N=3), having body weights of 0.348 to 0.362 kg, received an IV dose of Compound 1 at 0.5 mg/kg as part of a dosing cassette. Compound 1 was dissolved in 5% NaHCO3 in D5W (5% dextrose in water, pH 7.4) and filtered through a […] polyvinyl difluoride (PVDF) syringe filter prior to administration. The rats had access to food ad libitum before and after administration of Compound 1. Urine samples were collected in metabolic cages and maintained on frozen dry ice during collection. The samples were thawed and the volume of the urine was recorded. An aliquot of the urine sample was transferred to a polypropylene storage tube, frozen and stored (−80° C.) prior to bioanalysis.
Rat urine concentrations of Compound 1 were determined by LC/MS/MS. […]

[2] = IV/PO pharmacokinetic study of Compound 1 in monkeys; type: in vivo; details: male, cynomolgus monkey, plasma, 1 mg/kg; for AUC(0-t): read-out: AUClast Mean
Experimental: A monkey PK study was performed with an appropriate mass of compound 1 in volume of vehicle (e.g., 5% sodium bicarbonate, 5% dextrose in H2O, pH 7.4, for oral and PEG200:EtOH:Water (40:10:50), pH 7.0, filtered through a […] PDVF syringe for IV) such that the final concentration was dosed at 0.5 mL/kg (IV) or 2.0 mL/kg (PO).
Male cynomologus monkeys (3 per route) housed at Xenometrics (Stilwell, Kans.) received an IV or PO dose of compound 1 at 1 mg/kg. Animals administered IV doses had access to food ad libitum and those administered PO doses were fasted overnight and received food approximately 4 hours after dose administration. Blood samples were collected from each animal at each time point (pre-dose, 0.083 hour, 0.25 hour, 0.5 hour, 1 hour, 2 hours, 4 hours, 6 hours, 8 hours, 12 hours, and 24 hours) via the cephalic, femoral, or sphenous vein through 48 hours. All samples were collected into K2EDTA tubes and placed on ice. Samples were processed to plasma by centrifugation (3200 rpm, 10 minutes, 5° C.), and acidified with a final concentration of 2% acetic acid. Aliquots of plasma were transferred to a 96-well plate tubes and stored frozen (−70° C.) prior to bioanalysis. Plasma concentrations of compound 1 were determined by LC/MS/MS. Plasma study samples were vortexed and placed in a 96-well plate. The samples were extracted with 200 μL of 0.2% formic acid in acetonitrile with an internal standard. The extract was centrifuged for 10 minutes at 3700 RPM and supernatant was mixed with 0.2% formic acid in water. Samples (15 μL) were injected on a Thermo (C18 50×2.1 mm) column with a flow rate of 0.3 mL/min. […] Pharmacokinetic parameters of compound 1 were determined by non-compartmental analysis (Model 201 and Model 200 for IV and PO administration, respectively) using Phoenix WinNonlin Version 6.3 (Certara, Sunnyvale, Calif.) and using individual plasma concentration time profiles from 3 animals.
Plasma clearance was determined from the intravenous arm of the study, and represents the rate at which plasma is cleared of drug. […]

Cc1cnc(C(=O)N[C@H](Cc2ccc(-c3cc(Cl)ccc3F)cc2)C[C@@H](O)C(=O)O)o1 [Compound 1, (2R,4R)-5-(5′-Chloro-2′-fluorobiphenyl-4-yl)-2-hydroxy-4-[(5-methyloxazole-2-carbonyl)amino]pentanoic Acid]
Amount of Compound 1 Excreted in Urine over Collection Period (0-24 hrs) Mean [1]: 0.0462 µg | AUC(0-t) ([2]; IV): 2780 ng·h/mL | AUC(0-t) ([2]; PO): 1660 ng·h/mL | bioavailability ([2]; oral, PO vs IV): ~60%
